What all share (experiment): DTP human tumour cell line panel, 48 h
Assay [1] deals with HOP-62 NSCLC.
Assay [2] concerns HT29 colon.
Assay [3] has as its system MCF7 breast.
Assay [4] concerns NCI-H23 lung.
The test system of assay [5] is NCI-H460 lung.
Assay [6] has as its system NCI/ADR-RES ovarian.
The subject of assay [7] is PC-3 prostate.
Assay [8] has as its system RPMI-8226 leukemia.
For assay [9], the system named is RXF 393 renal.
Assay [10] deals with SK-MEL-2 melanoma.

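Interpolation was linear, between the two tested concentrations surrounding the appropriate level; five concentrations were tested over 48 hours in 96-well plates. GI50 = concentration required for 50% inhibition of growth. TGI: total growth inhibition.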

By GI50 is commonly meant the concentration that inhibits growth by half. One may read the TGI as the concentration giving total growth inhibition. Read a low TGI as more potent growth arrest. For the compound `CCc1c(C)nc2sc3c(N)ncnc3c2c1C`, the GI50 in [1], in assay [2], in [3], in [4], in assay [5] and in assay [6] was above 25 µM throughout. Further, the GI50 in assay [7], in assay [8], in [9] and in assay [10] was above 25 µM throughout. The TGI in assay [1], in [2], in [3], in assay [4], in assay [5] and in assay [6] was above 25 µM throughout. Besides, the TGI in [7], in assay [8], in assay [9] and in assay [10] was above 25 µM in each case.

In the case of `COc1ccc(Nc2ccnc(N3CCN(c4ccnc5cc(Cl)ccc45)CC3)n2)cc1`, the GI50 is 1.27 µM in [1]; 0.542 µM in assay [2]; 1.01 µM in assay [3]; 1.65 µM in assay [4]; 0.837 µM in [5]; 0.769 µM in assay [6]. In addition, the GI50 in assay [7] was 0.705 µM; in assay [8], 1.04 µM; in assay [9], 1.31 µM; in assay [10], 1.03 µM. Further, the total growth inhibition concentration (TGI) was above 29 µM in assay [1]; 4.92 µM in assay [2]; 7.32 µM in assay [3]; 9.4 µM in [4]; 4.68 µM in assay [5]; 5.22 µM in assay [6]. In addition, the TGI is 7.25 µM in assay [7], 3.88 µM in assay [8], 6.6 µM in assay [9] and 3.27 µM in assay [10].

Regarding `C[C@@H]1Cc2cc(O)ccc2[C@H]2CC[C@]3(C)/C(=C/COCCN(C)C)CC[C@H]3[C@H]12` (tested in a mixture with another compound), the GI50 in assay [1] is 0.285 µM; in [2], 0.368 µM; in [3], below 0.0208 µM; in assay [4], 0.107 µM; in assay [5], 0.0704 µM; in [6], 0.192 µM. Also, the GI50 in assay [7] was 0.233 µM; in assay [8], 0.239 µM; in assay [9], 0.105 µM; in assay [10] it was 0.323 µM. Further, the TGI in [1] came out at 0.739 µM; in [2], 1.2 µM; in assay [3], 0.612 µM; in assay [4], 0.36 µM; in assay [5], 0.208 µM; in assay [6], 0.419 µM. The concentration for total growth inhibition (TGI) in assay [7] was 1.3 µM; in assay [8] it was 0.694 µM; in assay [9], 0.316 µM; in assay [10], 0.845 µM.

Regarding `C=CCc1cc(Nc2c3ccc(Cl)cc3nc3ccc(OC)cc23)cc(CN(CC)CC)c1O`, the GI50 in assay [1] was 2.92 µM; in [2], 1.75 µM; in assay [3], 2.1 µM; in [4], 0.559 µM; in [5], 0.525 µM; in assay [6], 2.88 µM. Also, the GI50 in [7] is 1.04 µM; in [8], 0.348 µM; in [9], 1.23 µM; in assay [10], 1.9 µM. Moreover, the TGI in assay [1] came out at 13.5 µM; in assay [2] it was 10.1 µM; in [3], 7.94 µM; in [4] it was 9.91 µM; in [5] it was 2.69 µM; in assay [6], 10.8 µM. Also, the TGI stood at 4.73 µM in assay [7], 2.38 µM in assay [8], 4.66 µM in assay [9] and 4.93 µM in [10].

For `CCN1C(=O)N(CC)C2C1NN=c1s/c(=C\c3ccc(F)cc3)c(=O)n12` (stereo not given), the concentration for 50% growth inhibition (GI50) was 0.287 µM in assay [1]; 0.0614 µM in assay [2]; 0.0454 µM in assay [3]; 0.547 µM in assay [4]; 0.218 µM in assay [5]; 0.168 µM in [6]. Also, the GI50 in [7] is 0.217 µM; in assay [8] it was 0.326 µM; in assay [9] it was 0.162 µM; in assay [10], 0.425 µM. The TGI in [1], in [2], in assay [3], in assay [4], in [5] and in [6] was above 100 µM throughout. The TGI was above 100 µM in assay [7], above 63.2 µM in [8], 0.622 µM in [9] and above 100 µM in [10].

As to `Fc1ccc(/C=N/n2c(-c3ccc(F)c(Cl)c3)n[nH]c2=S)cc1`, the GI50 in assay [1] is 16.7 µM; in assay [2], 35.3 µM; in assay [3], 19.7 µM; in [4], 18.8 µM; in [5], 19.2 µM; in assay [6], 23.4 µM. The GI50 in assay [7] is 27.3 µM; in assay [8] it was 19.8 µM; in assay [9], 21.2 µM; in assay [10] it was 38.7 µM. For the same compound, the concentration for total growth inhibition (TGI) in [1] was 31.4 µM; in [2], above 100 µM; in [3], 43 µM; in [4], 38.2 µM; in assay [5], 38.3 µM; in assay [6], 59.4 µM. The TGI is above 100 µM in [7], 43.2 µM in assay [8], 39.9 µM in assay [9] and above 100 µM in [10].

As for `c1cc(N2CCN(c3ccc(C4=NCCCN4)cc3)CC2)ccc1C1=NCCCN1`, the GI50 in assay [1] is above 100 µM; in assay [2], above 53.2 µM; in assay [3], above 57.5 µM; in assay [4], 30 µM; in [5], above 58.6 µM; in [6] it was above 100 µM. The GI50 is above 52.7 µM in assay [7], 23.8 µM in assay [8], above 35.8 µM in [9] and above 100 µM in assay [10]. The total growth inhibition concentration (TGI) in assay [1], in assay [2], in assay [3], in assay [4], in assay [5] and in [6] was above 100 µM throughout. Also, the TGI in [7], in assay [8], in assay [9] and in assay [10] was above 100 µM throughout.
